The results in this text go back to patent publication US8658566B2, “Composition and method for controlling plant diseases” (Sumitomo Chemical Company, Limited, priority 2009, dated 2014).

In the assay the test system is Pythium damping-off pathogen (Pythium irregulare). Kind of assay: Cucumber seed treatment test against Pythium damping-off (Test Example 1). It is filed as in vivo. The following applies: cucumber (Sagamihanjiro) seed treatment, 20° C., 8 days. The protocol: A DMSO solution of the compound I and a DMSO solution of ethaboxam were respectively prepared. These solutions were mixed to prepare a DMSO solution containing predetermined concentrations of the compound I and ethaboxam. Ten (10) μL of the DMSO solution and 1 g of cucumber (Sagamihanjiro) seeds were mixed by shaking in a 15-ml conical tube and then allowed to stand overnight to prepare treated seeds. A plastic pot was filled with sandy soil and the treated seeds were sown on it and then covered with sandy soil which had been mixed with a bran culture of Pythium damping-off pathogen (Pythium irregulare). The sown seeds were watered and then cultured in a cultivation room at 20° C. for 8 days. The occurrence of Pythium damping-off diseases was checked and the incidence of disease was calculated by Equation 1.
For comparison, a DMSO solution containing a predetermined concentration of ethaboxam was prepared and subjected to the same test and then the incidence of disease was determined.
In order to calculate a control value, the same test was conducted in which the plants had been treated with none of the test compounds and the incidence of disease was determined.
The control value was calculated by the Equation 2 based on the incidence of disease thus determined. […]

SMILES strings stand for the structures.

On to `CCNc1nc(CC)c(C(=O)NC(C#N)c2cccs2)s1` (centres unmarked) [Ethaboxam], for which the Control value is reported as 43 (ethaboxam 2 g/100 kg seeds alone (compound I 0)) and 64 (ethaboxam 10 g/100 kg seeds alone (compound I 0)).
